Results taken from US20160024062A1, “ISOXAZOLINE DERIVATIVES FOR CONTROLLING INVERTEBRATE PESTS” (NOVARTIS TIERGESUNDHEIT AG, priority 2011, published 2016).

Tests used:
[1] = tested on: Rhipicephalus sanquineus nymphs; experiment: Activity in vivo against Rhipicephalus sanquineus nymphs on Mongolian gerbils (spray application); conditions: engorged nymphs counted seven days after infestation, vs placebo (Abbot's formula)
Method: On day 0, gerbils are treated with the test compound at a given dose by spray application. On day +1 (+2), the animals are infested with nymphs of R. sanguineus. Ticks are left on the animals until full repletion. Seven days after infestation nymphs dropped off fully engorged are collected and counted. Efficacy in killing is expressed as a tick number reduction in comparison with a placebo treated group, using the Abbot's formula.

[2] = tested on: Ctenocephalides felis (cat flea); experiment: Activity in vivo against Ctenocephalides felis (cat flea) on Mongolian gerbils (per oral application); conditions: dose 3.2 mg/kg, oral gavage, live fleas counted 48 h after infestation, vs placebo (Abbot's formula)
Method: On day 0, gerbils are treated orally by gavage with the test compound formulated at a given dose. Immediately after treatment, they are infested with a mixed adult population of cat fleas. Evaluation of efficacy is performed 48 h infestation by counting the numbers of live fleas recovered from the gerbils. Efficacy is expressed as comparison with a placebo treated group using the Abbot's formula.

[3] = tested on: Ctenocephalides felis (cat flea); experiment: Activity in vivo against Ctenocephalides felis (cat flea) on Mongolian gerbils (spray application); conditions: live fleas counted 24 h and 48 h after infestation, vs placebo (Abbot's formula)
Method: On day 0, gerbils are treated with the test compound at a given dose by spray application. On day +1, the animals are infested with a mixed adult population of cat fleas. Evaluation of efficacy is performed 24 h and 48 h infestation by counting the numbers of live fleas recovered from the gerbils. Efficacy is expressed as comparison with a placebo treated group using the Abbot's formula.

| Compound | Efficacy in killing % ([1]; dose 10 mg/kg) | melting point | Efficacy in killing % [2] | Efficacy in killing % ([3]; dose 10 mg/kg) | Efficacy in killing % ([1]; dose 100 mg/kg) | Efficacy in killing % ([3]; dose 32 mg/kg) |
| --- | --- | --- | --- | --- | --- | --- |
| Cc1oc(C2=NOC(c3cc(Cl)cc(Cl)c3)(C(F)(F)F)C2)cc1C(=O)NCC(=O)NCC(F)(F)F (stereo not drawn) [Compound 1.19, 5-(5-(3,5-dichlorophenyl)-5-(trifluoromethyl)-4,5-dihydroisoxazol-3-yl)-2-methyl-N-(2-oxo-2-((2,2,2-trifluoroethyl)amino)ethyl)furan-3-carboxamide] | 100% | 172 to 174 °C | 99% | 94% |  |  |
| Cc1sc(C2=NOC(c3cc(Cl)cc(Cl)c3)(C(F)(F)F)C2)cc1C(=O)NCC(=O)NCC#N (stereo not drawn) [Compound 1.32, N-(2-((cyanomethyl)amino)-2-oxoethyl)-5-(5-(3,5-dichlorophenyl)-5-(trifluoromethyl)-4,5-dihydroisoxazol-3-yl)-2-methylthiophene-3-carboxamide] |  |  |  |  | 85% | 96% |
